Results reported in patent US9695174B2, “Inhibitor of breast cancer resistance protein (BCRP)” (Millennium Pharmaceuticals, Inc., priority 2013, dated 2017).
Like-named read-outs stand apart in the source and are kept apart here.

Experiments:
BCRP efflux transporter = BCRP efflux transporter (Homo sapiens (Human), UniProt Q9UNQ0); assay: Bi-directional transport study in Caco-2 cells, inhibition of BCRP efflux of 3H-estrone-3-sulfate
Description: To determine potency of compounds on inhibition of transporters, bi-directional transport studies are performed in Caco-2 cells (American Type Culture Collection, Manassas, Va.) at 37° C. in air, according toXia et al. (Expression, localization and functional characteristics of breast cancer resistance protein in Caco-2 cells. Drug Met. Disp., 33 (5): 637-643 (2005)). Prior to each experiment, the confluent cell monolayers on Transwell™ inserts are washed and equilibrated for 30 minutes with transport media (Hank's balanced salt solution (HBSS) containing 10 mM of N-2-hydroxyethyl-piperazine-N′-2-ethanesulfonic acid (HEPES) and 10 mM of glucose, pH 7.4). […] At preset time points, 0.05 mL aliquot of receiving solutions are sampled from the basolateral side (for A-to-B transport) or from the apical side (for B-to-A transport), and replaced immediately with an equal amount of fresh transport media except at the last time point (the end of the incubation). The radioactivity in each sample is measured by 1450 MicroBeta TriLux, a microplate scintillation and luminescence counter (PerkinElmer Life Sciences). Radioactivity (^3H) of the dosing solution is measured and used to calculate the initial donor concentration of the substrate.

P-gp transporter = P-gp transporter (Homo sapiens (Human), UniProt P08183); assay: Bi-directional transport study in Caco-2 cells, inhibition of P-gp efflux of 3H-digoxin; type: cell-based
Chain of P-gp transporter (P08183 whole entry): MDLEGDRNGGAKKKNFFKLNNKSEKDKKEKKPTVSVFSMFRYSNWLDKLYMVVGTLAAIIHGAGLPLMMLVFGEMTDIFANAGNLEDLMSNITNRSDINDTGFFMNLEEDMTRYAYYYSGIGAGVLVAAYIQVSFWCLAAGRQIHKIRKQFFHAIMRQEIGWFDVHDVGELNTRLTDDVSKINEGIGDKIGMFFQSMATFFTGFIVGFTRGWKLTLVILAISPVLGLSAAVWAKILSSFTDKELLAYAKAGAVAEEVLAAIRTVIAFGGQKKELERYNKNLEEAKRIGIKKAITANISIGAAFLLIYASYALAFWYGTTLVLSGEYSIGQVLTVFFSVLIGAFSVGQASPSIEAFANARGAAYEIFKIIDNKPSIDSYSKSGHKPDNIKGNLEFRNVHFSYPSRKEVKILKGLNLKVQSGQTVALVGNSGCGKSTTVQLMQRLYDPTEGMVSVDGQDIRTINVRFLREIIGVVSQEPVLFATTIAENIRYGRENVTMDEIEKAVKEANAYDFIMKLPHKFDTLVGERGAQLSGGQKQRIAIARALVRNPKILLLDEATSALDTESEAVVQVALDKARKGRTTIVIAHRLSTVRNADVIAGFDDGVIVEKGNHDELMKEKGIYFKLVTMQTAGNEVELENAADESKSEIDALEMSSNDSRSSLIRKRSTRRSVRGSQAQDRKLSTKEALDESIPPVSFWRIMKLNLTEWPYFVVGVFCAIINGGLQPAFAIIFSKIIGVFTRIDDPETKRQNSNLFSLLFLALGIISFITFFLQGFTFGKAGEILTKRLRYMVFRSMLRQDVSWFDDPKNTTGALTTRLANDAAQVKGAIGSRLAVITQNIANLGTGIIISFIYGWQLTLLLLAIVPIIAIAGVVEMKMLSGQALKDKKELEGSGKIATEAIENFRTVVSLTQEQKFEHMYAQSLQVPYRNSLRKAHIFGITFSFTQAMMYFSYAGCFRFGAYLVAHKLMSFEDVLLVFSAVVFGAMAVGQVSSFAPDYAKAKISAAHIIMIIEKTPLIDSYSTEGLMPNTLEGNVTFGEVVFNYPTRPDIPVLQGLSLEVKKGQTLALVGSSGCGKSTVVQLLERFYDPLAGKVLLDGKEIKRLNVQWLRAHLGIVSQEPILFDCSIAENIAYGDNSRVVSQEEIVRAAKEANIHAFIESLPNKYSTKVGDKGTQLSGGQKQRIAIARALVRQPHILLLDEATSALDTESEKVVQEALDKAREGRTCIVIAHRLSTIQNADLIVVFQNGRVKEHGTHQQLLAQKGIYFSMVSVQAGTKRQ

CYP2C19 = CYP2C19 (Homo sapiens (Human), UniProt P33261); assay: CYP inhibition in human liver microsomes (S-mephenytoin); type: in vitro ADME; details: read-out: CYP inhibition IC50 2C19
Chain of CYP2C19 (P33261 whole entry): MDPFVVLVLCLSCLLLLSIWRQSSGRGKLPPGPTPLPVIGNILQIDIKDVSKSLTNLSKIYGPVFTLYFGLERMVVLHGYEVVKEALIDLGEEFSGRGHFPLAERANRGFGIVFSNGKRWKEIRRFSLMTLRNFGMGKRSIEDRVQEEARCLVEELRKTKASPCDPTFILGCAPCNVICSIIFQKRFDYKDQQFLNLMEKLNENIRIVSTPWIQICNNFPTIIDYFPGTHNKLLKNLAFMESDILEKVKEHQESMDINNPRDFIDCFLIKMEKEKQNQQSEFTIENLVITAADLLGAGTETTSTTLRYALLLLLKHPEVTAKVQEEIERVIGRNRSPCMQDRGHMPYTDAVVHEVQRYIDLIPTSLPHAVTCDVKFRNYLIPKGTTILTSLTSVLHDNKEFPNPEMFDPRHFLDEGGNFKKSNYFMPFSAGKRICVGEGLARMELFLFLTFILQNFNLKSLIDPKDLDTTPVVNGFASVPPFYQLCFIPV
Description: (§1) Reactions are initiated by the addition of β-NADPH (2 mM) and MgCl2 (3 mM) in 0.1-M potassium phosphate buffer, pH 7.4. Reactions are incubated for 12 minutes at 37° C., and then terminated by the addition of an equal volume of ACN containing 1-μM carbutamide (IS). The plates are refrigerated at approximately 4° C. for 15 minutes and then centrifuged in order to pellet the precipitated proteins. The supernatants are analyzed by LC/MS/MS for the amount of metabolite formed by each CYP isozyme.

CYP2D6 = CYP2D6 (Homo sapiens (Human), UniProt P10635); assay: CYP inhibition in human liver microsomes (dextromethorphan); type: in vitro ADME; details: read-out: CYP inhibition IC50 2D6
Chain of CYP2D6 (P10635 whole entry): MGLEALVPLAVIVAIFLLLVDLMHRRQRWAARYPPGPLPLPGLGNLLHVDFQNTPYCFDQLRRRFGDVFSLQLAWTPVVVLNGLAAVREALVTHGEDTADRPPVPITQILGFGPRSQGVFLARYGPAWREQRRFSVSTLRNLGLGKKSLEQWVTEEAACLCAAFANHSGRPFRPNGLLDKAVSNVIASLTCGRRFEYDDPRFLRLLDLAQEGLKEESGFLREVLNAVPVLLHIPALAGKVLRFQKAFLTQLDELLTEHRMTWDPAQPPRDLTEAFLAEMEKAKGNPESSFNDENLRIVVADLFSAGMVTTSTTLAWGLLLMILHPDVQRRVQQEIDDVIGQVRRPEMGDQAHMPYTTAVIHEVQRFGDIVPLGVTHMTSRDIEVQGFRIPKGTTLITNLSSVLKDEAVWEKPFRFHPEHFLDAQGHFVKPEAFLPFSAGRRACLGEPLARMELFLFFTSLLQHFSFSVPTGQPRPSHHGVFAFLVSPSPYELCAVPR
Description: as §1

CYP2C8 = CYP2C8 (Homo sapiens (Human), UniProt P10632); assay: CYP inhibition in human liver microsomes (amodiaquine); type: in vitro ADME; details: read-out: CYP inhibition IC50 2C8
Chain of CYP2C8 (P10632 whole entry): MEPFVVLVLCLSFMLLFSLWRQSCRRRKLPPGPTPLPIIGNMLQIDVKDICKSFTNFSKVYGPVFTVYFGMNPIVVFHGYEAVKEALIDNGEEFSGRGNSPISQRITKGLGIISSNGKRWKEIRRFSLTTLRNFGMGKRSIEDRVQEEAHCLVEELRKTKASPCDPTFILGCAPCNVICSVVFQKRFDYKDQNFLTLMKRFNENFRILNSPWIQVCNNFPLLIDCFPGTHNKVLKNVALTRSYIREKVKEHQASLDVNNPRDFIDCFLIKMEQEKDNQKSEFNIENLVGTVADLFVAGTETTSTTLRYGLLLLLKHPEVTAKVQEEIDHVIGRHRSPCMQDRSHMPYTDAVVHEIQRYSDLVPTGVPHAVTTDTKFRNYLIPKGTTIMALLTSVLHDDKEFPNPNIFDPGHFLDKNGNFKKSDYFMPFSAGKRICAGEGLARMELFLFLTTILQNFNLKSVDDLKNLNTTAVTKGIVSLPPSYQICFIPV
Description: as §1

CYP1A2 = CYP1A2 (Homo sapiens (Human), UniProt P05177); assay: CYP inhibition in human liver microsomes (phenacetin); type: in vitro ADME; details: read-out: CYP inhibition IC50 1A2
Chain of CYP1A2 (P05177 whole entry): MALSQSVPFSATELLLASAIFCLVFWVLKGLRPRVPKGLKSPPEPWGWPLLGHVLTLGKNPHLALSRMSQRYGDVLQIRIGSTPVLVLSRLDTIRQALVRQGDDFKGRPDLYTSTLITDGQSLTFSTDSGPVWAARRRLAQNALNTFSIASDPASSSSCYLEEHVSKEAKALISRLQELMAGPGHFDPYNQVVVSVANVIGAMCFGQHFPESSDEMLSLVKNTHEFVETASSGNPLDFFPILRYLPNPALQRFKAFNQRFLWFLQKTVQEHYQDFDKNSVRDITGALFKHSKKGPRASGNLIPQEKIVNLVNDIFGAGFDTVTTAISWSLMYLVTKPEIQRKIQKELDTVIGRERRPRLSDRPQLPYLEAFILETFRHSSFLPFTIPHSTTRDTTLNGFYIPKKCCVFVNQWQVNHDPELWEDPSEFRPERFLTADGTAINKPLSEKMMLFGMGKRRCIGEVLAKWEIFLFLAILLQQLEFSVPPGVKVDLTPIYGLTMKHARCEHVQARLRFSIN
Description: as §1

CYP3A4/5 = assay: CYP inhibition in human liver microsomes (midazolam); type: in vitro ADME; details: midazolam substrate, read-out: CYP inhibition IC50 3A-M
Description: as §1

[1] = In vivo pharmacokinetic profile in Sprague-Dawley rats
Description: Approximately 200 μL of whole blood is collected from the jugular vein catheter of each animal into tubes containing the anticoagulant dipotassium ethylenediaminetetraacetic acid (K2EDTA) and is further processed into plasma at approximately 4° C. […] Pharmacokinetic analysis of the individual plasma concentration data is performed using a nonvalidated program (Phoenix™ WinNonlin®, Version 6.1 [Pharsight Corp (Mountain View, Calif., USA)]).

CYP2C9 = CYP2C9 (Homo sapiens (Human), UniProt P11712); assay: CYP inhibition in human liver microsomes (diclofenac); type: in vitro ADME; details: read-out: CYP inhibition IC50 2C9
Chain of CYP2C9 (P11712 whole entry): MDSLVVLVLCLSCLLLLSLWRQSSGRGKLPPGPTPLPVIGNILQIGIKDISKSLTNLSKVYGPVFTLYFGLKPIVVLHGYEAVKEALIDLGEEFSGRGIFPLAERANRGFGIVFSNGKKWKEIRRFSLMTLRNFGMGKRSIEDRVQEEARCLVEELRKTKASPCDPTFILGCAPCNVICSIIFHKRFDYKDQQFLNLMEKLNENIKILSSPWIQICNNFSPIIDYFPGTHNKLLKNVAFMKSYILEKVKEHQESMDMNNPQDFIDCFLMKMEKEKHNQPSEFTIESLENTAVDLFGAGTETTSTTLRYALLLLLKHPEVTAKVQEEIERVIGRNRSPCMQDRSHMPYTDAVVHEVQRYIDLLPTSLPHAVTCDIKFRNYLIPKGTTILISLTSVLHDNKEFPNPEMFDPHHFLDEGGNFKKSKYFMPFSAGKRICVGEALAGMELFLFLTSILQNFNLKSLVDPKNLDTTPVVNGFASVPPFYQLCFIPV
Description: as §1

[2] = read-out: IC50 on BCRP efflux transporter, Caco-2 cells, substrate 3H-Estrone-3-sulfate (26 nM)
[3] = Sprague-Dawley, rat, plasma, IV-JVC, 2 mg/kg
[4] = Sprague-Dawley, rat, plasma, PO-JVC, 20 mg/kg

Chain of BCRP efflux transporter (Q9UNQ0 whole entry): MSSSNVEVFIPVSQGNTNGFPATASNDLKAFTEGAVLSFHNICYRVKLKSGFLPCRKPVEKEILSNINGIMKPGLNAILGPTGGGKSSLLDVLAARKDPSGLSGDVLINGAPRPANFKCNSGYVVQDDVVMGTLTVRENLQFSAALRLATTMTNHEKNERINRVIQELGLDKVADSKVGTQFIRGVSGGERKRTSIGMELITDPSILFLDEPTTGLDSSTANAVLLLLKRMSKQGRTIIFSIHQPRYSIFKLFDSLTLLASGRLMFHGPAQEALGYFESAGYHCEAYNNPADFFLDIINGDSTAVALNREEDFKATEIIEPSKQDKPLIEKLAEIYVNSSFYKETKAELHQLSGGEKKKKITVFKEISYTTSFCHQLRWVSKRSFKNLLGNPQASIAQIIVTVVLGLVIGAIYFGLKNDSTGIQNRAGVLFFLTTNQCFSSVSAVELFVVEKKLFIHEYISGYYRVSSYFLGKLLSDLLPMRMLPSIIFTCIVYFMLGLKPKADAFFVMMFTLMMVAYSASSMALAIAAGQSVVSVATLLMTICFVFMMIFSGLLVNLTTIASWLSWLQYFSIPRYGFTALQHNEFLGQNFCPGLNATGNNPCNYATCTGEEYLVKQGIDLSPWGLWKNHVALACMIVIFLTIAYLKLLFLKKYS

SMILES: COc1cc2[nH]c3c(c2cc1C)C[C@@H]1C(=O)N[C@@H](C)C(=O)N1[C@H]3CC(C)C [Compound 12A, (3S,6S,12aR)-6-isobutyl-9-methoxy-3,10-dimethyl-2,3,6,7,12,12a-hexahydropyrazino[1′,2′:1,6]pyrido[3,4-b]indole-1,4-dione]
- IC50 (BCRP efflux transporter; [2]): > 10 µM

SMILES: COc1ccc2c3c([nH]c2c1)[C@H](CC(C)C)N1C(=O)[C@H](C)NC(=O)[C@@H]1C3 [Compound (I-1), (3S,6S,12aS)-6-isobutyl-9-methoxy-3-methyl-2,3,6,7,12,12a-hexahydropyrazino[1′,2′:1,6]pyrido[3,4-b]indole-1,4-dione]
- IC50 (P-gp transporter; Caco-2 cells, substrate 3H-digoxin): > 30 µM
- Selectivity for BCRP over P-gp (P-gp transporter; conclusion from Table 2): selective BCRP inhibitor
- IC50 (CYP2C19): 18.5 µM
- IC50 (CYP2D6): > 30 µM
- IC50 (BCRP efflux transporter; [2]): 0.6 µM
- IC50 (CYP2C8): > 30 µM
- IC50 (CYP1A2): 15.4 µM
- IC50 at 12 min (CYP3A4/5; pH 7.4, probe midazolam): > 30 µM
- Bioavailability (in words) [1]: high bioavailability
- Clearance (in words) [1]: low clearance
- CL ([1]; IV-JVC, 2 mg/kg): 25.7 mL/min/kg
- Vss ([1]; IV-JVC, 2 mg/kg): 1.64 L/kg
- Tmax ([1]; PO-JVC, 20 mg/kg): 1.3 h
- AUC [1, 3]: 4 µM·h
- half-life [1, 3]: 0.9 h
- AUC [1, 4]: 49 µM·h
- Cmax [1, 4]: 10.1 µM
- bioavailability [1, 4]: 123%
- half-life [1, 4]: 2 h
- IC50 (CYP2C9): > 30 µM

SMILES: COc1ccc2c3c([nH]c2c1)[C@H](CC(C)C)N1C(=O)[C@H](C)NC(=O)[C@H]1C3 [Compound 4, (3S,6S,12aR)-6-isobutyl-9-methoxy-3-methyl-2,3,6,7,12,12a-hexahydropyrazino[1′,2′:1,6]pyrido[3,4-b]indole-1,4-dione]
- IC50 (BCRP efflux transporter; [2]): > 10 µM

SMILES: COc1cc2[nH]c3c(c2cc1OC)C[C@@H]1C(=O)N[C@@H](C)C(=O)N1[C@H]3CC(C)C [Compound 8A, (3S,6S,12aR)-6-isobutyl-9,10-dimethoxy-3-methyl-2,3,6,7,12,12a-hexahydropyrazino[1′,2′:1,6]pyrido[3,4-b]indole-1,4-dione]
- IC50 (BCRP efflux transporter): > 10 µM

SMILES: CC(C)C[C@H]1c2[nH]c3ccccc3c2C[C@H]2C(=O)N[C@@H](CCC(=O)OC(C)(C)C)C(=O)N21 [Ko134, reference compound]
- IC50 (BCRP efflux transporter): 3.25 µM

SMILES: COc1cc2[nH]c3c(c2cc1OC)C[C@H]1C(=O)N[C@@H](C)C(=O)N1[C@H]3CC(C)C [Compound 8, (3S,6S,12aS)-6-isobutyl-9,10-dimethoxy-3-methyl-2,3,6,7,12,12a-hexahydropyrazino[1′,2′:1,6]pyrido[3,4-b]indole-1,4-dione]
- IC50 (BCRP efflux transporter; [2]): > 10 µM

SMILES: COc1cc2[nH]c3c(c2cc1C)C[C@H]1C(=O)N[C@@H](C)C(=O)N1[C@H]3CC(C)C [Compound 12, (3S,6S,12aS)-6-isobutyl-9-methoxy-3,10-dimethyl-2,3,6,7,12,12a-hexahydropyrazino[1′,2′:1,6]pyrido[3,4-b]indole-1,4-dione]
- IC50 (BCRP efflux transporter; [2]): 1.98 µM

SMILES: COc1ccc2c3c([nH]c2c1)[C@H](CC(C)C)N1C(=O)[C@H](CCC(=O)OC(C)(C)C)NC(=O)[C@@H]1C3 [Ko143, reference compound]
- IC50 (CYP2C19): 14.7 µM
- IC50 (CYP2D6): > 30 µM
- IC50 (CYP2C8): > 30 µM
- IC50 (CYP1A2): 17.5 µM
- IC50 (CYP3A4/5): > 30 µM
- AUC0-24 hr ([1]; IV-JVC, 2 mg/kg): 0.0856 µM·h
- CL ([1]; IV-JVC, 2 mg/kg): 1100 mL/min/kg
- T1/2 ([1]; IV-JVC, 2 mg/kg): 0.2 h
- Vss ([1]; IV-JVC, 2 mg/kg): 14.8 L/kg
- AUC0-24 hr ([1]; PO-JVC, 50 mg/kg): 0.0722 µM·h
- Cmax ([1]; PO-JVC, 50 mg/kg): 0.0214 µM
- F % ([1]; PO-JVC, 50 mg/kg): 3%
- Tmax ([1]; PO-JVC, 50 mg/kg): 2 h
- IC50 (CYP2C9): 6 µM
